Measured values as given in patent US12139487B2, “Compounds and uses thereof” (Foghorn Therapeutics Inc., priority 2022, dated 2024).

Test system: BRM-dependent transcription (BRG1 mutant lung cancer cell line A549)
Experiment: BRM-dependent transcription, MMTV luciferase reporter in BRG1 mutant A549 cells
Assay type: cell-based
Settings: Table 11; for IC50: A549-MMTV luciferase reporter, dexamethasone induced, 6 hours; for Ratio (MDA-MMTV IC50 (μM) divided by A549-MMTV IC50 (μM)): MMTV luciferase reporter cell lines, selectivity BRG1/BRM
Protocol: The potential inhibitory effects of compounds on BRG1 and BRM dependent transcription was study by testing the activity of against the BRG1 mutant lung cancer cell line A549 and a MDA cell line with BRM removed by CRISPR. Both cell lines were genetically engineered with a BRG1 or BRM-dependent mouse mammary tumor virus luciferase reporter. Luciferase transcription was induced by dexamethasone in the presence of compound at different concentrations and luminescence was measured using a plate reader 6 hours after stimulation.

IC50 (Homo sapiens, A549, 6 h) [nM] | Ratio (MDA-MMTV IC50 (μM) divided by A549-MMTV IC50 (μM)) | IC50 [nM] | SMILES
13.1 | 43.58 |  | CCOc1nc(C(F)F)ccc1-c1ccc2cnc(CNC(=O)c3cc(Br)c4c(c3)S(=O)(=O)[C@@H](F)COC4)cc2n1 [Compound 436]
13.4 | 53.94 |  | COc1ccc(-c2ccc3cnc(CNC(=O)c4cc(Br)c5c(c4)S(=O)(=O)[C@@H](F)COC5)cc3n2)nc1C1CC1 [Compound 487]
2.1 | 24.21 |  | O=C(NCc1cc2nc(-c3ccc([C@@H](F)CF)nc3OC(F)F)ccc2cn1)c1cc(F)c2c(c1)S(=O)(=O)[C@@H](F)CCO2 [Compound 391]
15.4 | 31.11 |  | COc1cccc(-c2ccc3cnc(CNC(=O)c4cc(F)c5c(c4)S(=O)(=O)[C@@H](F)CCO5)cc3n2)n1 [Compound 333]
24.1 | 29.97 |  | COc1nc([C@@H](C)C(F)F)ccc1-c1ccc2cnc(CNC(=O)c3cc(F)c4c(c3)S(=O)(=O)[C@@H](F)CCO4)cc2n1 [Compound 366]
3.2 | 26.77 |  | C[C@H](F)c1ccc(-c2ccc3cnc(CNC(=O)c4cc(F)c5c(c4)S(=O)(=O)[C@@H](F)CCO5)cc3n2)c(OC(F)F)n1 [Compound 389]
7.9 | 26.53 |  | O=C(NCc1cc2nc(-c3ccc(C(F)F)nc3OCC3CC3)ccc2cn1)c1cc(F)c2c(c1)S(=O)(=O)[C@@H](F)COC2 [Compound 488]
14.6 | 23.98 |  | COc1nc([C@@](C)(F)C(F)F)ccc1-c1ccc2cnc(CNC(=O)c3cc(F)c4c(c3)S(=O)(=O)[C@@H](F)CCO4)cc2n1 [Compound 356]
12 | 25.21 |  | O=C(NCc1cc2nc(-c3ccc([C@@H](F)C(F)F)c(C4CC4)n3)ccc2cn1)c1cc(Cl)c2c(c1)S(=O)(=O)[C@@H](F)COC2 [Compound 482]
4.7 | 21.65 |  | CCOc1nc([C@H](C)F)ccc1-c1ccc2cnc(CNC(=O)c3cc(F)c4c(c3)S(=O)(=O)[C@@H](F)COC4)cc2n1 [Compound 395]
19.4 | 49.65 |  | [2H]C([2H])([2H])Oc1ccc(-c2ccc3cnc(CNC(=O)c4cc(Br)c5c(c4)S(=O)(=O)[C@@H](F)COC5)cc3n2)nc1[C@H]1CC1(F)F [Compound 493]
20.3 | 26.26 |  | O=C(NCc1cc2nc(-c3ccc(OCCO)c(C4CC4)n3)ccc2cn1)c1cc(Cl)c2c(c1)S(=O)(=O)[C@@H](F)COC2 [Compound 428]
19 | 37.60 |  | O=C(NCc1cc2nc(-c3ccc(OC(F)F)c(C4CC4(F)F)n3)ccc2cn1)c1cc(Br)c2c(c1)S(=O)(=O)[C@@H](F)CCO2 (some centres unmarked) [Compound 448]
15.1 | 32.03 |  | [2H]C([2H])([2H])C([2H])([2H])Oc1nc(C(F)F)ccc1-c1ccc2cnc(CNC(=O)c3cc(Cl)c4c(c3)S(=O)(=O)[C@@H](F)COC4)cc2n1 [Compound 495]
15.1 | 22.34 |  | COCCOc1cnc2c(c1)OCCN2c1ccc2cnc(CNC(=O)c3cc(Cl)c4c(c3)S(=O)(=O)[C@@H](F)CCO4)cc2n1 [Compound 414]
8.8 | 28.72 |  | O=C(NCc1cc2nc(-c3ccc([C@H](F)C(F)F)c(C4CC4)n3)ccc2cn1)c1cc(F)c2c(c1)S(=O)(=O)[C@@H](F)COC2 [Compound 453]
17 | 24.85 |  | COc1nc(C(C)(F)F)ccc1-c1ccc2cnc(CNC(=O)c3cc(C(F)F)c4c(c3)S(=O)(=O)[C@@H](F)COC4)cc2n1 [Compound 467]
22.6 | 55.20 |  | O=C(NCc1cc2nc(-c3cnc(OC(F)F)c(C4CC4)n3)ccc2cn1)c1cc(C(F)F)c2c(c1)S(=O)(=O)[C@@H](F)COC2 [Compound 465]
18.6 | 25.42 |  | O=C(NCc1cc2nc(-c3ccnc(C4CC4)n3)ccc2cn1)c1cc(F)c2c(c1)S(=O)(=O)[C@@H](F)CCO2 [Compound 344]
5.8 | 35.93 |  | COCCOc1cnc2c(c1)OCCN2c1ccc2cnc(CNC(=O)c3cc(C(F)F)c4c(c3)S(=O)(=O)[C@@H](F)COC4)cc2n1 [Compound 437]

IC50 (Homo sapiens, A549, 6 h) [nM] | Ratio (MDA-MMTV IC50 (μM) divided by A549-MMTV IC50 (μM)) | IC50 [nM] | SMILES
7.9 | 26.59 |  | O=C(NCc1cc2nc(-c3ccc([C@H](F)C(F)F)c(C4CC4)n3)ccc2cn1)c1cc(C(F)F)c2c(c1)S(=O)(=O)[C@@H](F)COC2 [Compound 490]
17.9 | 23.62 |  | O=C(NCc1cc2nc(-c3cccc(OC(F)F)c3)ccc2cn1)c1cc(F)c2c(c1)S(=O)(=O)[C@@H](F)CCO2 [Compound 342]
24.4 | 23.20 |  | COCc1ccc(-c2ccc3cnc(CNC(=O)c4cc(Cl)c5c(c4)S(=O)(=O)[C@@H](F)COC5)cc3n2)nc1C1CC1 [Compound 422]
15.6 | 23.65 |  | O=C(NCc1cc2nc(-c3cccc4c3OC(F)(F)O4)ccc2cn1)c1cc(F)c2c(c1)S(=O)(=O)[C@@H](F)COC2 [Compound 458]
20.4 | 28.85 |  | O=C(NCc1cc2nc(-c3cncc(OC(F)F)n3)ccc2cn1)c1cc(Cl)c2c(c1)S(=O)(=O)[C@@H](F)COC2 [Compound 452]
17.4 | 28.69 |  | [2H]C1([2H])Oc2c(Cl)cc(C(=O)NCc3cc4nc(-c5ccc(OC(F)F)c(C6CC6)n5)ccc4cn3)cc2S(=O)(=O)[C@@H](F)C1([2H])[2H] [Compound 419]
21 | 28.13 |  | O=C(NCc1cc2nc(-c3ccc(C(F)F)nc3OCC3CC3)ccc2cn1)c1cc(F)c2c(c1)S(=O)(=O)[C@@H](F)CCO2 [Compound 332, (4R)—N-[[2-[2-(cyclopropylmethoxy)-6-(difluoromethyl)-3-pyridyl]-1,6-naphthyridin-7-yl]methyl]-4,9-difluoro-5,5-dioxo-3,4-dihydro-2H-1,5benzoxathiepine-7-carboxamide]
8 | 23.62 |  | [2H]C([2H])([2H])C([2H])([2H])Oc1nc([C@H](C)F)ccc1-c1ccc2cnc(CNC(=O)c3cc(F)c4c(c3)S(=O)(=O)[C@@H](F)CCO4)cc2n1 [Compound 421]
5.4 | 28.00 |  | [2H]C([2H])([2H])OCCOc1cnc2c(c1)OCCN2c1ccc2cnc(CNC(=O)c3cc(C(F)F)c4c(c3)S(=O)(=O)[C@@H](F)COC4)cc2n1 [Compound 484]
11.1 | 43.63 |  | [2H]C([2H])([2H])C([2H])([2H])Oc1ccc(-c2ccc3cnc(CNC(=O)c4cc(F)c5c(c4)S(=O)(=O)[C@@]([2H])(F)C([2H])([2H])C([2H])([2H])O5)cc3n2)nc1C1CC1(F)F (some centres unmarked) [Compound 378]
2.8 | 22.10 |  | C[C@@H]1CN(c2cccc(-c3cnc4cnc(CNC(=O)c5cc(F)c6c(c5)S(=O)(=O)[C@@H](F)CCO6)cc4n3)n2)C[C@H](C)O1 [Compound 405, (4R)—N-[[2-[6-[(2R,6S)-2,6-dimethylmorpholin-4-yl]-2-pyridyl]pyrido[3,4-b]pyrazin-7-yl]methyl]-4,9-difluoro-5,5-dioxo-3,4-dihydro-2H-1,5λ6-benzoxathiepine-7-carboxamide]
18.6 | 42.97 |  | O=C(NCc1cc2nc(-n3cc(F)c(OC(F)F)n3)ccc2cn1)c1cc(Cl)c2c(c1)S(=O)(=O)[C@@H](F)COC2 [Compound 474]
 | 23.82 | 16.7 | CCOc1nc([C@@H](F)CF)ccc1-c1ccc2cnc(CNC(=O)c3cc(C(F)F)c4c(c3)S(=O)(=O)[C@@H](F)COC4)cc2n1 [Compound 515]
21.3 | 24.82 |  | COc1nc(C(F)F)ccc1-c1ccc2cnc(CNC(=O)c3cc(Br)c4c(c3)S(=O)(=O)[C@@H](F)CCO4)cc2n1 [Compound 365]
10.2 | 25.72 |  | COCCOc1cnc2c(c1)OCCN2c1ccc2cnc(CNC(=O)c3cc(Br)c4c(c3)S(=O)(=O)[C@@H](F)COC4)cc2n1 [Compound 426]
26 | 23.22 |  | O=C(NCc1cc2nc(-n3cc(F)c(OC4CC4)n3)ccc2cn1)c1cc(F)c2c(c1)S(=O)(=O)[C@@H](F)CCO2 [Compound 386]
11.5 | 21.72 |  | COCCOc1nn(-c2ccc3cnc(CNC(=O)c4cc(F)c5c(c4)S(=O)(=O)[C@@H](F)COC5)cc3n2)cc1F [Compound 508]
 | 38.20 | 5.9 | C[C@@H]1CCN1c1cnc2c(-c3ccc4cnc(CNC(=O)c5cc(Cl)c6c(c5)S(=O)(=O)[C@@H](F)COC6)cc4n3)cccc2c1 [Compound 498]
6.2 | 35.00 |  | [2H]C([2H])([2H])C([2H])([2H])Oc1ccc(-c2ccc3cnc(CNC(=O)c4cc(F)c5c(c4)S(=O)(=O)[C@@H](F)COC5)cc3n2)nc1C1CC1(F)F (some centres unmarked) [Compound 463]
18.8 | 29.73 |  | CCOc1cccc(-c2ccc3cnc(CNC(=O)c4cc(Cl)c5c(c4)S(=O)(=O)[C@@H](F)CCO5)cc3n2)n1 [Compound 359]
